Assay [1] has as its target Sodium-dependent noradrenaline transporter (Homo sapiens, UniProt P23975).
Assay [2] concerns the target T1, Prostaglandin G/H synthase 1 (Rattus norvegicus, UniProt Q63921).
T1 sequence (Q63921 whole entry): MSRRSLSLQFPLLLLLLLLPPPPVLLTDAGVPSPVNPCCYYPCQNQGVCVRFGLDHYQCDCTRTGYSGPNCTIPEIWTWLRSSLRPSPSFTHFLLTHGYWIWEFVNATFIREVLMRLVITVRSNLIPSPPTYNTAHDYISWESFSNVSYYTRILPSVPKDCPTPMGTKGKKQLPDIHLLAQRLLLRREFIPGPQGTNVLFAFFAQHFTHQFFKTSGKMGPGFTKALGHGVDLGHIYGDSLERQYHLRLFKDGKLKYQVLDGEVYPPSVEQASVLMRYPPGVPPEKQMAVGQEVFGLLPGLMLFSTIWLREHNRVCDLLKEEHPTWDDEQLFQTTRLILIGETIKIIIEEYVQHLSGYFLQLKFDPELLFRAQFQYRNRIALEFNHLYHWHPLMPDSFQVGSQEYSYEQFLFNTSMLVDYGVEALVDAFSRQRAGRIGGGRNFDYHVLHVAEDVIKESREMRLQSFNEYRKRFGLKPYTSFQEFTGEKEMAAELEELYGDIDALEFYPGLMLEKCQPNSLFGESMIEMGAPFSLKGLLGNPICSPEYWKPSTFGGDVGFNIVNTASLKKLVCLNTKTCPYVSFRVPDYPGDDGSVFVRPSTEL
Format: functional.

Assay [3] has as its target T2, 5-hydroxytryptamine receptor 3A (Homo sapiens, UniProt P46098).
T2 sequence (P46098 whole entry): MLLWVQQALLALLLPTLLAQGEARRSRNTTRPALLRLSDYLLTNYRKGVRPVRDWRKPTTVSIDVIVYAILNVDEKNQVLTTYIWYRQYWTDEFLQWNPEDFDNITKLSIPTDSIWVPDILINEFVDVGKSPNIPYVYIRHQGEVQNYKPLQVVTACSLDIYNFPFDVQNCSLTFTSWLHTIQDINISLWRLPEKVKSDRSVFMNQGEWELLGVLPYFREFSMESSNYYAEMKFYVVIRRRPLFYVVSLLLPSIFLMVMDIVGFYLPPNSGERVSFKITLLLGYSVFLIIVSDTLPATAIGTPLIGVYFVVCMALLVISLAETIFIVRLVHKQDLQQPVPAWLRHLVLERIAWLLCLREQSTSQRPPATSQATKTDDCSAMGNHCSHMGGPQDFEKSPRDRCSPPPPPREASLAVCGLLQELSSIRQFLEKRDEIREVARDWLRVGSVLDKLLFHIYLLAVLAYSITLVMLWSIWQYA
Format: functional.

The target of assay [4] is cGMP-inhibited 3',5'-cyclic phosphodiesterase 3A (Homo sapiens, UniProt Q14432). It counts as functional.
cGMP-inhibited 3',5'-cyclic phosphodiesterase 3A, sequence (Q14432 whole entry): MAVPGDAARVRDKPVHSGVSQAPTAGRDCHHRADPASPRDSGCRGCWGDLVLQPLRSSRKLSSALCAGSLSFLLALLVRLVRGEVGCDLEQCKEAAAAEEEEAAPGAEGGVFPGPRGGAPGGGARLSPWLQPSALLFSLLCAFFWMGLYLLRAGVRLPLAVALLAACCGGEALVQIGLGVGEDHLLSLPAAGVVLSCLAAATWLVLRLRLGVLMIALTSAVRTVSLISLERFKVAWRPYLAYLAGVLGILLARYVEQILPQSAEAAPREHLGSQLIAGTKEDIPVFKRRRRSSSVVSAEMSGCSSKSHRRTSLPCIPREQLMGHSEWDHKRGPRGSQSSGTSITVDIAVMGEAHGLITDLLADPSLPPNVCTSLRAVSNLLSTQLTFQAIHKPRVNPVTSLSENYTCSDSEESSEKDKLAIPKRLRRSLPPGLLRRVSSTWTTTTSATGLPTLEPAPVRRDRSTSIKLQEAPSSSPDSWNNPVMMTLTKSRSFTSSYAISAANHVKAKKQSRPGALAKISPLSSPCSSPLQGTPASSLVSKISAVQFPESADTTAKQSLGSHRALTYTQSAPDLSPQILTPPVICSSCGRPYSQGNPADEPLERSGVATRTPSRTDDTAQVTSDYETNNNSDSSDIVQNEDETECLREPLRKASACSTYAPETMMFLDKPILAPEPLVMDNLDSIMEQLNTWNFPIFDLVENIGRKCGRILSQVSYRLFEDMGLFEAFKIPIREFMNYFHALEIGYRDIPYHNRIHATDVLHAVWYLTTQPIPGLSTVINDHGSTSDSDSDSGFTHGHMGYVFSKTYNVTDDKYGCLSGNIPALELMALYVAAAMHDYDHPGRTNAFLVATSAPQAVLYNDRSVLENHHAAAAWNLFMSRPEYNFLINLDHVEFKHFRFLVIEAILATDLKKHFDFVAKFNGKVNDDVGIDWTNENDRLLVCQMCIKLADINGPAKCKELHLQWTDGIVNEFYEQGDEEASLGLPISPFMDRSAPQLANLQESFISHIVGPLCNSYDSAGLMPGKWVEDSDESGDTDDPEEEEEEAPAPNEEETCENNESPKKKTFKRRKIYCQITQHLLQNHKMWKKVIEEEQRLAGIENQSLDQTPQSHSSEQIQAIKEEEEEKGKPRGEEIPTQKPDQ
Assay [5] has as its target T3, Muscarinic acetylcholine receptor M2 (Homo sapiens, UniProt P08172).
T3 sequence (P08172 whole entry): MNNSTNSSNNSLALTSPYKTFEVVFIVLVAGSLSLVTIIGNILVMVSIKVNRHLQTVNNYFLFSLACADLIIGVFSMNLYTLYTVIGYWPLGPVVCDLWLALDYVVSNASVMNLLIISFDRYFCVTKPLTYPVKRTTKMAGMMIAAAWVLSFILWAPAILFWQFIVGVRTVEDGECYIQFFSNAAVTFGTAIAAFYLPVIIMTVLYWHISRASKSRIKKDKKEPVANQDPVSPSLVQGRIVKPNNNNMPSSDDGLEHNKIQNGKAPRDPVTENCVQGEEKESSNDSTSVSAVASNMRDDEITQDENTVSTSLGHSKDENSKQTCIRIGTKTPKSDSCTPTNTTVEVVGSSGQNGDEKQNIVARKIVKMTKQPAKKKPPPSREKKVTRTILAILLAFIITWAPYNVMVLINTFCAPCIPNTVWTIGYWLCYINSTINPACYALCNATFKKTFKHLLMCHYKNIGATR
It counts as functional, cell-based.

Assay [6] concerns the target T4, Alpha-2A adrenergic receptor (Homo sapiens, UniProt P08913).
T4 sequence (P08913 whole entry): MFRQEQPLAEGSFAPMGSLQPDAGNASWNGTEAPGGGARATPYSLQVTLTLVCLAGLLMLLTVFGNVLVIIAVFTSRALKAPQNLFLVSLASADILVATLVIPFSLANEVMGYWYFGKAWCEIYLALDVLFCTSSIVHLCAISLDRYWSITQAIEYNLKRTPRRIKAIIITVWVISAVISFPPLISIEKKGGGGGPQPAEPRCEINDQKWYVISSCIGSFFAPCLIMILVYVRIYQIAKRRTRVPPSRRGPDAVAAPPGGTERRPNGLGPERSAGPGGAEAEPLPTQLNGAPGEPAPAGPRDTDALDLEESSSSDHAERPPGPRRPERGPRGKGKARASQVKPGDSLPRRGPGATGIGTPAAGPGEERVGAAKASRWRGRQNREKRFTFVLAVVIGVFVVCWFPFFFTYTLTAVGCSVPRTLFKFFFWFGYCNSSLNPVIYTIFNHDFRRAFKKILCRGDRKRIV
Format: functional, cell-based.

In assay [7] the target is T5, Cholecystokinin receptor type A (Homo sapiens, UniProt P32238).
T5 sequence (P32238 whole entry): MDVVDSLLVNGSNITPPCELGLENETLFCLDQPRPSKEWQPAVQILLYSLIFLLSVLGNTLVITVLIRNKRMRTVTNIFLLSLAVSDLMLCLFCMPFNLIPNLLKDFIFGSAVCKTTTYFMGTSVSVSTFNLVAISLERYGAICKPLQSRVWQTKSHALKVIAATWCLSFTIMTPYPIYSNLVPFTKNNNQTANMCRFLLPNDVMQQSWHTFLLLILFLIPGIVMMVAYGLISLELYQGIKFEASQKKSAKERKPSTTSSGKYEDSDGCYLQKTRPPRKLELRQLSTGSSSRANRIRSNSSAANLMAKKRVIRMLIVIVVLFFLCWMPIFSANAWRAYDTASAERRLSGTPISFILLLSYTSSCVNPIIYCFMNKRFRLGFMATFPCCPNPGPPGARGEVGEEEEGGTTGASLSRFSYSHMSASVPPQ
Also: assay procedure not described here.

Sodium-dependent noradrenaline transporter, sequence (P23975 whole entry): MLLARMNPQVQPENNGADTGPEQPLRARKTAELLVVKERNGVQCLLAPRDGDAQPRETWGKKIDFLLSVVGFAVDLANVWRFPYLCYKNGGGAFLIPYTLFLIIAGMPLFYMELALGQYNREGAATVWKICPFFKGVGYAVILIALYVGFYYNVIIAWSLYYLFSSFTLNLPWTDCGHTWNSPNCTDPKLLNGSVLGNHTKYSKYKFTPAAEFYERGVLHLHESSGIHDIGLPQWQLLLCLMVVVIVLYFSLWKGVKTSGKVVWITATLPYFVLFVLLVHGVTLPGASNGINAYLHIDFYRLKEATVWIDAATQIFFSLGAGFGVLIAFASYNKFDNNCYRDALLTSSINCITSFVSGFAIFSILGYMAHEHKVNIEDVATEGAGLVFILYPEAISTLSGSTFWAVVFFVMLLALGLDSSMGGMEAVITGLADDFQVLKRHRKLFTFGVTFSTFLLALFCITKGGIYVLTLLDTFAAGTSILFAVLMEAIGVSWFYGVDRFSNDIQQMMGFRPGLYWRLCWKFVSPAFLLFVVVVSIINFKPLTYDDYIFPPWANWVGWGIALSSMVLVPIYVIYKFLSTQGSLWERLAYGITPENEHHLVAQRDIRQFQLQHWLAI

Regarding `CCCCN1C[C@H](O)[C@@H](O)[C@H](O)[C@H]1CO`, the AC50 in assay [1], in assay [2], in assay [3], in assay [4], in assay [5] and in assay [6] was more than 30 µM each time. Also, the half-maximal activity concentration (AC50) (commonly the midpoint of the concentration-response curve, whichever way the signal moves) in assay [7] was more than 30 µM.
Regarding `CN(C)CCC=C1c2ccccc2C(C)(C)c2ccccc21`, the concentration at half-maximal activity (AC50) in assay [1] was 1.05 µM; in assay [2], more than 30 µM; in assay [3], 4.4 µM; in assay [4] it was more than 30 µM; in assay [5] it was more than 10 µM; in assay [6], 6.7 µM. The same molecule displayed an AC50 in assay [7] of more than 30 µM.
Consider `CCOC(=O)[C@H](CCc1ccccc1)N[C@@H](C)C(=O)N1[C@H](C(=O)O)C[C@@H]2CCC[C@@H]21`, for which the AC50 is more than 10 µM in assay [1]; more than 30 µM in assay [2]; more than 30 µM in assay [3]; more than 30 µM in assay [4]; more than 10 µM in assay [5]; more than 10 µM in assay [6]. The molecule further displayed an AC50 in assay [7] of more than 30 µM.
As to `Nc1nc(NC2CC2)c2ncn([C@H]3C=C[C@@H](CO)C3)c2n1` [ABACAVIR], the AC50 in assay [1], in assay [2], in assay [3], in assay [4], in assay [5] and in assay [6] was more than 30 µM throughout. The molecule also yielded an AC50 in assay [7] of more than 30 µM.
In the case of `CC(=O)Nc1ccc(O)cc1` [ACETAMINOPHEN], the AC50 in assay [1], in assay [2], in assay [3], in assay [4], in assay [5] and in assay [6] was more than 30 µM in each case. The same molecule came in with an AC50 in assay [7] of more than 30 µM.
Take `CCCSc1ccc2nc(NC(=O)OC)[nH]c2c1` [ALBENDAZOLE]: the AC50 was more than 30 µM in assay [1]; more than 30 µM in assay [2]; more than 30 µM in assay [3]; more than 30 µM in assay [4]; more than 10 µM in assay [5]; more than 10 µM in assay [6]. This molecule showed a half-maximal activity concentration (AC50) in assay [7] of more than 10 µM.
Regarding `COc1cc2nc(N(C)CCCNC(=O)C3CCCO3)nc(N)c2cc1OC` (centres undefined) [ALFUZOSIN], the half-maximal activity concentration (AC50) is 13 µM in assay [1]; more than 30 µM in assay [2]; more than 30 µM in assay [3]; more than 30 µM in assay [4]; more than 30 µM in assay [5]; 6.8 µM in assay [6]. In addition, the concentration at half-maximal activity (AC50) in assay [7] was more than 30 µM.
In the case of `C=CCc1ccccc1OCC(O)CNC(C)C` (centres undefined) [ALPRENOLOL], the AC50 in assay [1] is 30 µM; in assay [2], more than 30 µM; in assay [3], more than 30 µM; in assay [4], more than 30 µM; in assay [5], more than 30 µM; in assay [6], more than 30 µM. The molecule further returned a half-maximal activity concentration (AC50) in assay [7] of more than 30 µM.
Take `CNC(=O)c1ccccc1Sc1ccc2c(/C=C/c3ccccn3)n[nH]c2c1` [AXITINIB]: the half-maximal activity concentration (AC50) in assay [1], in assay [2], in assay [3], in assay [4], in assay [5] and in assay [6] was more than 30 µM throughout. This molecule also came in with an AC50 in assay [7] of more than 30 µM.
As to `CC[C@H]1OC(=O)[C@H](C)[C@@H](O[C@H]2C[C@@](C)(OC)[C@@H](O)[C@H](C)O2)[C@H](C)[C@@H](O[C@@H]2O[C@H](C)C[C@H](N(C)C)[C@H]2O)[C@](C)(O)C[C@@H](C)CN(C)[C@H](C)[C@@H](O)[C@]1(C)O` [AZITHROMYCIN], the AC50 in assay [1] is more than 10 µM; in assay [2], more than 30 µM; in assay [3], more than 10 µM; in assay [4], more than 30 µM; in assay [5] it was more than 10 µM; in assay [6], more than 10 µM. Further, the concentration at half-maximal activity (AC50) in assay [7] is more than 30 µM.
As to `NCC(CC(=O)O)c1ccc(Cl)cc1` (centres undefined) [BACLOFEN], the AC50 in assay [1], in assay [2], in assay [3], in assay [4], in assay [5] and in assay [6] was more than 30 µM throughout. Also, the AC50 in assay [7] was more than 30 µM.
Regarding `CN1C(=O)CCS(=O)(=O)C1c1ccc(Cl)cc1` (centres undefined) [CHLORMEZANONE], the AC50 is more than 10 µM in assay [1]; more than 10 µM in assay [2]; more than 30 µM in assay [3]; more than 30 µM in assay [4]; more than 10 µM in assay [5]; more than 10 µM in assay [6]. The concentration at half-maximal activity (AC50) in assay [7] was more than 10 µM.
With `CN(C)CCC(c1ccc(Cl)cc1)c1ccccn1` (centres undefined) [CHLORPHENIRAMINE], the AC50 in assay [1] was 7.7 µM; in assay [2], more than 30 µM; in assay [3], more than 10 µM; in assay [4], more than 10 µM; in assay [5], more than 10 µM; in assay [6], more than 10 µM. The molecule also registered an AC50 in assay [7] of more than 30 µM.
As to `CN(C)/N=N/c1[nH]cnc1C(N)=O` [DACARBAZINE], the AC50 was more than 10 µM in assay [1]; more than 10 µM in assay [2]; more than 30 µM in assay [3]; more than 30 µM in assay [4]; more than 10 µM in assay [5]; more than 10 µM in assay [6]. The AC50 in assay [7] was more than 10 µM.
Take `O=C1Nc2ccc(Cl)cc2[C@@](C#CC2CC2)(C(F)(F)F)O1` [EFAVIRENZ]: the AC50 was 15 µM in assay [1]; more than 30 µM in assay [2]; more than 30 µM in assay [3]; 24 µM in assay [4]; more than 10 µM in assay [5]; more than 10 µM in assay [6]. The molecule also displayed an AC50 in assay [7] of more than 30 µM.
On to `O=C(OCC(O)CO)c1ccccc1Nc1ccnc2cc(Cl)ccc12` (centres undefined) [GLAFENINE], for which the concentration at half-maximal activity (AC50) was more than 30 µM in assay [1]; more than 30 µM in assay [2]; more than 30 µM in assay [3]; more than 30 µM in assay [4]; more than 10 µM in assay [5]; more than 30 µM in assay [6]. The AC50 in assay [7] was more than 30 µM.
Take `C[C@]12CCC(=O)C=C1CC[C@@H]1[C@@H]2[C@@H](O)C[C@@]2(C)[C@H]1CC[C@]2(O)C(=O)CO` [HYDROCORTISONE]: the AC50 was more than 10 µM in assay [1]; more than 30 µM in assay [2]; more than 30 µM in assay [3]; more than 30 µM in assay [4]; more than 10 µM in assay [5]; more than 10 µM in assay [6]. In assay [7], this molecule showed an AC50 of more than 30 µM.

For the origin of these results see ChEMBL document CHEMBL5291721, “A preclinical secondary pharmacology resource illuminates target-adverse drug reaction associations of marketed drugs” (Nat Commun, 2023).
